The term IC50 denotes the concentration that gives 50% inhibition.

The target in the assay is T1, human GPR17 receptor (Homo sapiens, UniProt Q13304).
T1 construct: host or cells: HEK-293
Put plainly: Calcium mobilization functional assay (Fluo-8, FLIPR TETRA) in HEK-293 hGPR17 (Gα-q assay). It is filed as cell-based. Conditions: antagonism of MDL29,951 (~EC80) induced Ca2+ signal; cell line (HEK-293 hGPR17 or HEK-293 Suchi5 hGPR17) not given. In a few lines:
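Fluo-8-loaded HEK-293 hGPR17 cells (60 min dye loading, room temperature) were preincubated with compound for twenty minutes, then challenged with agonist MDL29,951 at ~EC80, 500 nM. Intracellular calcium release via Gα-q was recorded as FLIPR fluorescence for a further 2 minutes; compounds tested in duplicate.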

Where only a bound is given, the exact number is not on record here.

T1 sequence (Q13304 whole entry): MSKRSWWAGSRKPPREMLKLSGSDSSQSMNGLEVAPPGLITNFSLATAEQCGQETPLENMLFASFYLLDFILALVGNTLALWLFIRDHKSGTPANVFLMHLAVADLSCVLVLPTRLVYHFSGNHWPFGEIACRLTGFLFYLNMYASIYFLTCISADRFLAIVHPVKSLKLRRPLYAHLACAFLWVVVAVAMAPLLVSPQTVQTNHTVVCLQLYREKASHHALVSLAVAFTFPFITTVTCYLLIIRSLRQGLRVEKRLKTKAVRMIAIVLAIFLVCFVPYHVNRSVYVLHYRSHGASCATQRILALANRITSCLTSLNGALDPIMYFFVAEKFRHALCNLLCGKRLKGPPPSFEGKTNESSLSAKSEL

Take `N#Cc1cccc(-c2cc(S(=O)(=O)Nc3cc(F)c(C(F)(F)F)cc3F)c[nH]2)c1F` [Cpd 564, 5-(3-cyano-2-fluorophenyl)-N-[2,5-difluoro-4-(trifluoromethyl)phenyl]-1H-pyrrole-3-sulfonamide]: the IC50 fell in the range of 500 to 5000 nM.

`O=S(=O)(Nc1cc(F)c(C(F)(F)F)cc1F)c1c[nH]c(-c2cccn3ccnc23)c1` [Cpd 565, N-[2,5-difluoro-4-(trifluoromethyl)phenyl]-5-imidazo[1,2-a]pyridin-8-yl-1H-pyrrole-3-sulfonamide]: the IC50 was in the range of 500 to 5000 nM.

With `O=S(=O)(Nc1cc(F)c(C(F)(F)F)cc1F)c1c[nH]c(-c2cccc3ccnn23)c1` [Cpd 566, N-[2,5-difluoro-4-(trifluoromethyl)phenyl]-5-pyrazolo[1,5-a]pyridin-7-yl-1H-pyrrole-3-sulfonamide], the IC50 lay in the range of 500 to 5000 nM.

In the case of `O=S(=O)(Nc1cc(F)c(C(F)(F)F)cc1F)c1c[nH]c(-c2ccc3cccnn23)c1` [Cpd 567, N-[2,5-difluoro-4-(trifluoromethyl)phenyl]-5-pyrrolo[1,2-b]pyridazin-7-yl-1H-pyrrole-3-sulfonamide], the IC50 is < 500 nM.

For `O=S(=O)(Nc1cc(F)c(C(F)(F)F)cc1F)c1c[nH]cc1Cc1cccc(Cl)c1` [Cpd 568, 4-[(3-chlorophenyl)methyl]-N-[2,5-difluoro-4-(trifluoromethyl)phenyl]-1H-pyrrole-3-sulfonamide], the IC50 was 500 to 5000 nM.

Turning to `N#Cc1cc(F)c(NS(=O)(=O)c2c[nH]cc2Cc2cccc(Cl)c2)cc1F` [Cpd 569, 4-[(3-chlorophenyl)methyl]-N-(4-cyano-2,5-difluorophenyl)-1H-pyrrole-3-sulfonamide], the IC50 was < 500 nM.

In the case of `N#Cc1ccc(NS(=O)(=O)c2c[nH]c(-c3ccc(F)s3)c2)c(F)c1` [Cpd 570, N-(4-cyano-2-fluorophenyl)-5-(5-fluorothiophen-2-yl)-1H-pyrrole-3-sulfonamide], the concentration for half-maximal inhibition (IC50) was < 500 nM.

As for `CC1(C)CC(c2cc(S(=O)(=O)Nc3cc(F)c(C(F)(F)F)cc3F)c[nH]2)C1` [Cpd 571, N-[2,5-difluoro-4-(trifluoromethyl)phenyl]-5-(3,3-dimethylcyclobutyl)-1H-pyrrole-3-sulfonamide], the IC50 was in the range of 5000 to 50000 nM.

Take `N#Cc1cc(F)c(NS(=O)(=O)c2c[nH]c(-c3cccc4ccsc34)c2)cc1F` [Cpd 572, 5-(1-benzothiophen-7-yl)-N-(4-cyano-2,5-difluorophenyl)-1H-pyrrole-3-sulfonamide]: the IC50 is < 500 nM.

Regarding `O=S(=O)(Nc1cc(F)c(C(F)(F)F)cc1F)c1c[nH]c(-c2ncccc2CF)c1` [Cpd 573, N-[2,5-difluoro-4-(trifluoromethyl)phenyl]-5-[3-(fluoromethyl)pyridin-2-yl]-1H-pyrrole-3-sulfonamide], the IC50 was in the range of 500 to 5000 nM.

`N#Cc1cccc(Cc2c[nH]cc2S(=O)(=O)Nc2cc(F)c(C(F)(F)F)cc2F)c1` [Cpd 574, 4-[(3-cyanophenyl)methyl]-N-[2,5-difluoro-4-(trifluoromethyl)phenyl]-1H-pyrrole-3-sulfonamide]: the IC50 lay in the range of 500 to 5000 nM.

As for `N#Cc1cc(F)c(NS(=O)(=O)c2c[nH]c(-c3cccc(Cl)n3)c2)cc1F` [Cpd 575, 5-(6-chloropyridin-2-yl)-N-(4-cyano-2,5-difluorophenyl)-1H-pyrrole-3-sulfonamide], the IC50 is < 500 nM.

For `N#CCOc1cc(F)c(NS(=O)(=O)c2c[nH]c(-c3ccccc3)c2)cc1Cl` [Cpd 576, N-[5-chloro-4-(cyanomethoxy)-2-fluorophenyl]-5-phenyl-1H-pyrrole-3-sulfonamide], the half-maximal inhibitory concentration (IC50) was 500 to 5000 nM.

For `Cc1cc(F)cnc1-c1cc(S(=O)(=O)Nc2ccc(C#N)cc2F)c[nH]1` [Cpd 577, N-(4-cyano-2-fluorophenyl)-5-(5-fluoro-3-methylpyridin-2-yl)-1H-pyrrole-3-sulfonamide], the IC50 is < 500 nM.

On to `N#CCOc1cc(F)c(NS(=O)(=O)c2c[nH]c(C3CCC3)c2)cc1F` [Cpd 578, N-[4-(cyanomethoxy)-2,5-difluorophenyl]-5-cyclobutyl-1H-pyrrole-3-sulfonamide], for which the IC50 is < 500 nM.

As to `O=S(=O)(Nc1cc(F)c(C(F)(F)F)cc1F)c1c[nH]c(-c2ncccc2C(F)F)c1` [Cpd 580, 5-[3-(difluoromethyl)pyridin-2-yl]-N-[2,5-difluoro-4-(trifluoromethyl)phenyl]-1H-pyrrole-3-sulfonamide], the concentration for half-maximal inhibition (IC50) was 500 to 5000 nM.

As for `N#Cc1ccc(NS(=O)(=O)c2c[nH]c(-c3ncccc3C(F)F)c2)c(F)c1` [Cpd 581, N-(4-cyano-2-fluorophenyl)-5-[3-(difluoromethyl)pyridin-2-yl]-1H-pyrrole-3-sulfonamide], the IC50 lay in the range of 5000 to 50000 nM.

In the case of `Cc1noc(C)c1-c1cc(S(=O)(=O)Nc2cc(F)c(C(F)(F)F)cc2F)c[nH]1` [Cpd 582, N-[2,5-difluoro-4-(trifluoromethyl)phenyl]-5-(3,5-dimethyl-1,2-oxazol-4-yl)-1H-pyrrole-3-sulfonamide], the IC50 lay in the range of 500 to 5000 nM.

As for `N#Cc1cc(F)c(NS(=O)(=O)c2c[nH]cc2Cc2ccc(F)cc2)cc1F` [Cpd 584, N-(4-cyano-2,5-difluorophenyl)-4-[(4-fluorophenyl)methyl]-1H-pyrrole-3-sulfonamide], the IC50 is < 500 nM.

On to `N#Cc1cc(F)c(NS(=O)(=O)c2c[nH]cc2Cc2cccc(F)c2)cc1F` [Cpd 585, N-(4-cyano-2,5-difluorophenyl)-4-[(3-fluorophenyl)methyl]-1H-pyrrole-3-sulfonamide], for which the IC50 is < 500 nM.

In the case of `N#Cc1cc(F)c(NS(=O)(=O)c2c[nH]cc2Cc2cccc(C3CC3)c2)cc1F` [Cpd 586, N-(4-cyano-2,5-difluorophenyl)-4-[(3-cyclopropylphenyl)methyl]-1H-pyrrole-3-sulfonamide], the concentration for half-maximal inhibition (IC50) fell in the range of 500 to 5000 nM.

Take `N#Cc1ccc(NS(=O)(=O)c2c[nH]c(-c3ccccc3OC(F)(F)F)c2)c(F)c1` [Cpd 587, N-(4-cyano-2-fluorophenyl)-5-[2-(trifluoromethoxy)phenyl]-1H-pyrrole-3-sulfonamide]: the IC50 fell in the range of 500 to 5000 nM.

`N#Cc1cc(F)c(NS(=O)(=O)c2c[nH]c(-c3ccccc3OC(F)(F)F)c2)cc1F` [Cpd 588, N-(4-cyano-2,5-difluorophenyl)-5-[2-(trifluoromethoxy)phenyl]-1H-pyrrole-3-sulfonamide]: the IC50 was < 500 nM.

Take `O=S(=O)(Nc1cc(F)c(C(F)(F)F)cc1F)c1c[nH]c(-c2ccccc2OC(F)(F)F)c1` [Cpd 589, N-[2,5-difluoro-4-(trifluoromethyl)phenyl]-5-[2-(trifluoromethoxy)phenyl]-1H-pyrrole-3-sulfonamide]: the IC50 was in the range of 500 to 5000 nM.

In the case of `O=S(=O)(Nc1cc(F)c(C(F)(F)F)cc1F)c1c[nH]cc1Cc1cccc(C2CC2)c1` [Cpd 590, 4-[(3-cyclopropylphenyl)methyl]-N-[2,5-difluoro-4-(trifluoromethyl)phenyl]-1H-pyrrole-3-sulfonamide], the IC50 lay in the range of 5000 to 50000 nM.

With `O=S(=O)(Nc1cnsc1)c1c[nH]c(-c2ccccc2)c1` [Cpd 591, 5-phenyl-N-(1,2-thiazol-4-yl)-1H-pyrrole-3-sulfonamide], the 50% inhibitory concentration (IC50) is 5000 to 50000 nM.

With `N#Cc1ccc(NS(=O)(=O)c2c[nH]c(-c3ncccc3CF)c2)c(F)c1` [Cpd 592, N-(4-cyano-2-fluorophenyl)-5-[3-(fluoromethyl)pyridin-2-yl]-1H-pyrrole-3-sulfonamide], the IC50 lay within 500 to 5000 nM.

The record behind these values is patent publication US20240299385A1 (ReWind Therapeutics NV, priority 2021, published 2024).
